In test [1] the test system is Na+ currents in FS neurons. The test is described as follows: Na+ currents in FS neurons. Conditions: n=3. Format: cell-based, rat. From the text:
Tissue preparation. […] Hippocampal interneurons and GP were identified as CaMKII negative, GAD67 and parvalbumin positive neurons by single cell RT-PCR detection of corresponding mRNAs following physiology experiments (see below).
(§1) Electrophysiology. Whole-cell recordings used standard techniques^27,28. The internal solution consisted of (in mM): 30-90 K2SO4, 0-60 N-methyl-D-glucamine, 2 MgCl2, 40 HEPES, 5 EGTA, 12 phosphocreatine, 2 Na2ATP, 0.2 Na3GTP, and 0.1 leupeptin, pH 7.2 with H2SO4 (osmolarity 260-270 mOsm/l). The external solution consisted of (in mM): 140 Na-isethionate, 2 KCl, 4 MgCl2, 10 HEPES, 12 glucose and 0.001 TTX, pH 7.35 with NaOH (osmolarity 295-305 mOsm/l). The internal solution for current clamp recordings consisted of (in mM) 110 potassium methylsulphate, 2 MgCl2, 40 HEPES, 5 EGTA, 12 phosphocreatine, 2 Na2ATP, 0.2 Na3GTP, and 0.1 leupeptin, pH 7.2 with H2SO4 (osmolarity 260-270 mOsm/l). In the case of current clamp recordings, TTX was omitted from external solution. […] Recordings were obtained with Axon Instruments 200 patch-clamp amplifier and controlled and monitored with a PC running pClamp software (version 7.0) (Axon Instruments Inc., Union City, Calif.). […] After seal rupture, series resistance (2-10 MΩ) was compensated (75-90%) and periodically monitored. […]

Test [2] deals with K+ channels in the Kv1, Kv2, Kv3, and Kv4 subfamilies. Conditions: cited from earlier work.
For test [3], the target named is T1, homomeric Kv3.4a channels (Rattus norvegicus, UniProt Q63734).
T1 construct: expressed in transfected cells; host or cells: HEK293
T1 sequence (Q63734 1-625): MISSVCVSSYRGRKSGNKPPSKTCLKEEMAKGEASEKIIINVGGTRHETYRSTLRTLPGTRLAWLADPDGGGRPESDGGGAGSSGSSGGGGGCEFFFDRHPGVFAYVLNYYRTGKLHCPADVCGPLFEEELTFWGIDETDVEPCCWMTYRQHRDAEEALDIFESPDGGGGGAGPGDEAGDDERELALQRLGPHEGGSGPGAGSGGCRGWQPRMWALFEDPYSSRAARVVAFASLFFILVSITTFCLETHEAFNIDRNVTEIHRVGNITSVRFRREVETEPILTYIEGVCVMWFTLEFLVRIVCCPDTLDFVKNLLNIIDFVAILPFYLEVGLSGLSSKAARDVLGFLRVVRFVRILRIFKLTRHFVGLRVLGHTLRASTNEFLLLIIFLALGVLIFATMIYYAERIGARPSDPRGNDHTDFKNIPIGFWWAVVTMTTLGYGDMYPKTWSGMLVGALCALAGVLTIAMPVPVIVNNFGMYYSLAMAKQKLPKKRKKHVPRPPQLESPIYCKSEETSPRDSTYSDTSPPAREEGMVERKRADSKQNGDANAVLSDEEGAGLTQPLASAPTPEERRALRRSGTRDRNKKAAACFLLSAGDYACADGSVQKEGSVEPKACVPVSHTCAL
Put plainly: Whole-cell recording of homomeric Kv3.4a channels expressed in HEK293 cells. Format: cell-based. Conditions: n=5.
Description: as §1, with “solution. For the recordings in the presence of Ca^+2 ions EGTA was omitted from internal solution and 4 mM of MgCl2 was substituted by 2 mM of CaCl2 and 2 mM of MgCl2.” for “solution.”
Single cell RT-PCR (scRT-PCR). […] In the case of co-transfection with Kv3.4a and Kv3.1b cDNA, single cell RT-PCR was used to confirm the presence of both mRNAs in the recorded cell. […]

Data on one substance can be found in patent US7629323B2, “Manipulation of neuronal ion channels” (Northwestern University, priority 2003, dated 2009).

“BDS-I (AAPCFCSGKPGRGDLWILRGTCPGGYGYTSNCYKWPNICCYPH)”: in test [1], the “inactivation kinetics of Na+ currents in FS neurons” value is given as “didn't significantly alter”. The “block of other K+ channels in the Kv1, Kv2, Kv3, and Kv4 subfamilies” value in test [2] is “failed to block”. Further, in test [3], the “effect on homomeric Kv3.4a channel currents” value is reported as “slowed the rising phase of the currents but led to larger currents later in the step”.
